For data set [1], the system named is approximately 200 targets. Put plainly: Eurofins Panlabs Spectrum screen selectivity panel (enzymatic and receptor binding assays). Particulars: no binding defined as <50% inhibition at 10 μM. The text has this:
(§1) Effects were considered significant if AM1476's mean value was three or more SDs above the vehicle control mean in the agonist assay or three or more SDs below the positive control agonist (5‐nM α‐methylserotonin) mean in the antagonist assay. AM1476 was screened for selectivity against approximately 200 targets using a Eurofins Panlabs Spectrum screen panel including enzymatic and receptor binding assays.

Another data set concerns the target T1, human 5-HT2AR (Homo sapiens, UniProt P28223).
T1 construct: 355250 (IP1); host or cells: CHO-K1
Briefly: Functionality assay, HTRF quantification of IP1 accumulation in CHO-K1 cells. The format is cell-based. Particulars: inhibition of 5-HT (5 nM) induced IP1 response, read-out: IC50, antagonistic activity, human 5-HT2A. Here is the method:
(§2) The binding profile of AM1476 was evaluated for binding to human 5‐HT2AR, 5‐HT2BR, and 5‐HT2CR in radioligand binding assays using Chinese hamster ovary (CHO‐K1) cells overexpressing human receptors (in vitro assays 271650, 271700, and 271800; Eurofins Panlabs Discovery). AM1476 was evaluated at 0.1, 1, 10, 100, 1,000, and 10,000 nM (5‐HT2BR) or at 1, 10, 100, 1,000, and 10,000 nM (5‐HT2AR and 5‐HT2CR). Human 5‐HT2AR and 5‐HT2BR functionality was measured with homogeneous time‐resolved fluorescence quantification of IP1 accumulation in CHO‐K1 cells (in vitro assays 355250 and 355260). Compounds creating a ≥50% inhibition of 5‐HT (5 nM) induced fluorescence response specified receptor antagonist activity. 5‐HT2CR functionality was assessed with [35S] GTPγS for quantification of bound GTPγS. Compounds creating a ≥50% inhibition of 5‐HT (100 nM) induced [35S] GTPγS binding response specified receptor antagonist activity (in vitro assay 355200). AM1476 was evaluated at 0.1, 0.3, 1, 3, 10, 30, and 300 nM (5‐HT2BR) or 1, 10, 100, 1,000, and 10,000 nM (5‐HT2AR and 5‐HT2CR). […] Mouse 5‐HT2BR functionality was measured in a calcium influx assay (Charles River) in CHO‐KI cells expressing the mouse 5‐HT2BR using a calcium sensitive dye and a fluorescence imaging plate reader (FLIPRTETRA) instrument. AM1476 was evaluated at 0.3, 1, 3, 10, 30, 100, 300, and 1,000 nM.
(In general: Time-resolved FRET reads energy transfer from a long-lived donor to a nearby acceptor.)

Another data set concerns the target T2, Adrenergic β1 (hu) (Homo sapiens, UniProt P08588).
T2 construct: Eurofins Panlabs 302230
Briefly: Functionality assay, Adenylyl Cyclase, Eurofins Panlabs 302230. The format is cell-based.
Description: as §1

The target of data set [2] is T3, Uptake, Norepinephrine (hu) (Homo sapiens, UniProt P23975).
T3 construct: Eurofins Panlabs 302000
T3 sequence (P23975 whole entry): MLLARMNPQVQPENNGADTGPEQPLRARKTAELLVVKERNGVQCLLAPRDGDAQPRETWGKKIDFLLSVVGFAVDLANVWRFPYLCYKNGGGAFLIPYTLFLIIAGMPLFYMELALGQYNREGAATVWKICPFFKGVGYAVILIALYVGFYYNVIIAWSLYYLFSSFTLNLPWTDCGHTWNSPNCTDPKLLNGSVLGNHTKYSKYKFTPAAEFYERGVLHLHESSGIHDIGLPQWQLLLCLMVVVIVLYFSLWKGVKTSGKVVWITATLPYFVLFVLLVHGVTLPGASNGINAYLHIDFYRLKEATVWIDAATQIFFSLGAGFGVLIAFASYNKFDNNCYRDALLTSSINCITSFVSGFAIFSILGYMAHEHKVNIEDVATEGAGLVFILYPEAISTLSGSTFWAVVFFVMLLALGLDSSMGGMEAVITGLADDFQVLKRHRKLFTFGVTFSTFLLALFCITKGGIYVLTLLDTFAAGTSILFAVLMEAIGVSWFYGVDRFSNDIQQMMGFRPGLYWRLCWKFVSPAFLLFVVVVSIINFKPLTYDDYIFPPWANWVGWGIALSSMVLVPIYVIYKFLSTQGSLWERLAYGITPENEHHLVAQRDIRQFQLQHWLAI
Put plainly: Functionality assay, Uptake, Eurofins Panlabs 302000. The format is cell-based.
Description: as §1

Another data set has as its system Tsk-1 mice. Put plainly: Tsk-1 mouse model of skin fibrosis. The format is in vivo. Here is the method: AM1476 was dissolved in sterile distilled water for the ex vivo and in vivo experiments. A concentration of 30 μM was applied for the ex vivo experiment. For the in vivo experiments, 1, 3, or 10 mg/kg was administered orally once or twice daily.
In the murine Tsk‐1 model of SSc, a dominant mutation in the fibrillin 1 gene leads to an SSc‐like disease, with minor inflammatory infiltrates, autoantibody production, and fibrosis of the skin. This model reflects the later stages of SSc characterized by noninflammatory self‐sustaining fibrosis. Eight to 12 mice per group were analyzed. Treatment was initiated at an age of five weeks, and the outcome was analyzed at an age of 10 weeks.[11]
Skin samples were fixed in 4% formalin for six hours and embedded in paraffin. Five‐micrometer sections were cut and stained with hematoxylin and eosin (H&E). The dermal thickness was quantified on H&E‐stained sections using images captured with a light microscope (Nikon eclipse 80i) at 100‐fold magnification by manually measuring the distance between the epidermal‐dermal junction and the dermal‐subcutaneous fat junction at four sites per mouse.[15], [16] For lung samples, the whole left lung was fixed in 4% formalin for six hours and embedded in paraffin. Five‐micrometer sections were cut and stained with trichrome and sirius red. Histologic readouts were evaluation of the fibrotic area as the percentage of the total lung area in sirius red–stained sections (two sections per mouse) and quantification of pulmonary changes using the Ashcroft score (four sections per mouse).[17], [18]
The amount of collagen protein in skin and lung samples was determined by hydroxyproline assay.[19], [20] After digestion in 6 M HCl for three hours at 120°C, the pH of the samples was adjusted to a pH range of 6–7 with 6 M NaOH. Afterward, 0.06 M chloramine T was added to each sample and incubated for 20 minutes at room temperature. Next, 3.15 M perchloric acid and 20% p‐dimethylaminobenzaldehyde were added, and samples were incubated for an additional 20 minutes at 60°C. The absorbance was determined at 557 nm with a Spectra MAX 190 microplate spectrophotometer. Absolute values were determined using a standard curved generated with type I collagen (Sigma‐Aldrich).
Myofibroblasts are characterized by the expression of α‐smooth muscle actin (α‐SMA). Fibroblasts positive for α‐SMA were detected by immunohistochemistry staining with monoclonal anti–α‐SMA antibodies (clone 1A4, Sigma‐Aldrich). The expression was visualized with horseradish peroxidase–labeled secondary antibodies and 3,3‐diaminobenzidine tetra hydrochloride (Sigma‐Aldrich). Monoclonal mouse IgG antibodies (Calbiochem) were used as controls. Images of sections stained for α‐SMA were captured on a light microscope (Nikon eclipse 80i). The myofibroblast number was manually evaluated at four different areas at 200‐fold magnification. Myofibroblasts were defined as α‐SMA positive, single, and spindle‐shaped cells in the dermis.[5], [21]

In a further data set the target is T4, 5-HT2CR (Homo sapiens, UniProt P28335).
T4 construct: 355200 (GTPγS); host or cells: CHO-K1
T4 sequence (P28335 33-458): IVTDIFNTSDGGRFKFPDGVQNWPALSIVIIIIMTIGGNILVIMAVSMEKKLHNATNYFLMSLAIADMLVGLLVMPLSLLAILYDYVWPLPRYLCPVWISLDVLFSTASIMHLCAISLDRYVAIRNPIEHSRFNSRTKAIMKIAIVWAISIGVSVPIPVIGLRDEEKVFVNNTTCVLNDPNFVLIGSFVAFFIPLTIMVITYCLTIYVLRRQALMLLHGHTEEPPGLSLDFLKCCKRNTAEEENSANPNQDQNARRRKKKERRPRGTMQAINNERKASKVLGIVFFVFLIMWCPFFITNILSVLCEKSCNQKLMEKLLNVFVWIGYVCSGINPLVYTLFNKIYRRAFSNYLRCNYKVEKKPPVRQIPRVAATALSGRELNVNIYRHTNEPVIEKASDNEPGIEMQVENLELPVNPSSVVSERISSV
Put plainly: Functionality assay, [35S]GTPγS binding. Format: biochemical. The settings on record: inhibition of 5-HT (100 nM) induced [35S]GTPγS binding; read-out: IC50, antagonistic activity, human 5-HT2C. The procedure: as §2

The conditions of data set [3]: cGvHD mice, 28 days repeated oral once daily administration.
Description: After repeated oral administration for 28 days, whole blood was collected from each treatment group 15 minutes, 30 minutes, and 1, 2, 4, 6, 8, and 24 hours after a final morning dose (two animals were used for each time point), and plasma was separated from blood within 30 minutes.
The next data set concerns the target T5, Histamine H1 (hu) (Homo sapiens, UniProt P35367).
T5 construct: Eurofins Panlabs 313200
Put plainly: Functionality assay, GTPγS Binding, Eurofins Panlabs 313200. The format is biochemical.
Description: as §1

Another data set concerns the target T6, Uptake, Dopamine (hu) (Homo sapiens, UniProt Q01959).
T6 construct: Eurofins Panlabs 316010
Put plainly: Functionality assay, Uptake, Eurofins Panlabs 316010. The format is cell-based.
Description: as §1

In another data set the target is T7, Adrenergic α1A (hu) (Homo sapiens, UniProt P35348).
T7 construct: Eurofins Panlabs 302040
T7 sequence (P35348 whole entry): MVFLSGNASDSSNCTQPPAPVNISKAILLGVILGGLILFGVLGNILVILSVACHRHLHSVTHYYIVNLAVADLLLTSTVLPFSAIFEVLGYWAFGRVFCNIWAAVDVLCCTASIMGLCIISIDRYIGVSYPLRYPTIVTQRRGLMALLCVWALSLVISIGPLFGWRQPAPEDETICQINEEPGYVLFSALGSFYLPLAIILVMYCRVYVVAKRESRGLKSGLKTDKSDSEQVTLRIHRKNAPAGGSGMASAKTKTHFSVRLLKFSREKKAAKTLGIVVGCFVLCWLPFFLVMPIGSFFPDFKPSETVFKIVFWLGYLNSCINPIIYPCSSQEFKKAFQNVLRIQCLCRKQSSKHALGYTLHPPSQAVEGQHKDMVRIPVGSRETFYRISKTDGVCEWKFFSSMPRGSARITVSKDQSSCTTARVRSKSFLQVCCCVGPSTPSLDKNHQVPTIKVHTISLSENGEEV
Put plainly: Functionality assay, IP1, Eurofins Panlabs 302040. The format is cell-based.
Description: as §1

The target of the next data set is T8, Adrenergic α1B (hu) (Homo sapiens, UniProt P35368).
T8 construct: Eurofins Panlabs 302060
T8 sequence (P35368 whole entry): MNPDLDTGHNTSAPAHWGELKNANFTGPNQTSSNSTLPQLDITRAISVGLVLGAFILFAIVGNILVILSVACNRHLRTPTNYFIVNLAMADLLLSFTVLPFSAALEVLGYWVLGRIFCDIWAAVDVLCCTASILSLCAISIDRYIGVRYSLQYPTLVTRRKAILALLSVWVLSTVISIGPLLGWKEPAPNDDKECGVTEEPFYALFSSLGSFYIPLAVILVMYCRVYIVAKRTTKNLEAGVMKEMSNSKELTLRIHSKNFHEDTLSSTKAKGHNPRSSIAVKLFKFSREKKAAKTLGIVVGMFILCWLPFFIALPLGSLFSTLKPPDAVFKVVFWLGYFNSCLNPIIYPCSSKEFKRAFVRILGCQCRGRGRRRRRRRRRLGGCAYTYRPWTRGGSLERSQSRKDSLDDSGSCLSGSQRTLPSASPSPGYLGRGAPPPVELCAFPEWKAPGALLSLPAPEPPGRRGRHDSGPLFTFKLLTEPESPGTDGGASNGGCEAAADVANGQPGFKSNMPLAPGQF
Put plainly: Functionality assay, IP1, Eurofins Panlabs 302060. The format is cell-based.
Description: as §1

[4] abbreviates: all three doses, vs vehicle-treated 10-week-old Tsk-1 mice.

A value given as a limit tells only on which side of the number the result lay.

T2 sequence (P08588 whole entry): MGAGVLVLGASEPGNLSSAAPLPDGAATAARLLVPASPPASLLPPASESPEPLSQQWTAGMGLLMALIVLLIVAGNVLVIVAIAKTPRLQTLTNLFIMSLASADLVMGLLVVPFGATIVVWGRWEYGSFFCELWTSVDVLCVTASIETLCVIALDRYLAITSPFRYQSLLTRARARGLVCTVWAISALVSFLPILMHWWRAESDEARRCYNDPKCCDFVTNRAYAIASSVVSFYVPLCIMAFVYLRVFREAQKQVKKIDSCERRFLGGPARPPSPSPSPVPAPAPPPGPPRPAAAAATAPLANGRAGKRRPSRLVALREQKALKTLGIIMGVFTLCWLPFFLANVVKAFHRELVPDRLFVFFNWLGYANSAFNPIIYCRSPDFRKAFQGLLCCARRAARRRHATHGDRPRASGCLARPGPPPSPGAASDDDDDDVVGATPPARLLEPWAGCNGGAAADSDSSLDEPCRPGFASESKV
T5 sequence (P35367 whole entry): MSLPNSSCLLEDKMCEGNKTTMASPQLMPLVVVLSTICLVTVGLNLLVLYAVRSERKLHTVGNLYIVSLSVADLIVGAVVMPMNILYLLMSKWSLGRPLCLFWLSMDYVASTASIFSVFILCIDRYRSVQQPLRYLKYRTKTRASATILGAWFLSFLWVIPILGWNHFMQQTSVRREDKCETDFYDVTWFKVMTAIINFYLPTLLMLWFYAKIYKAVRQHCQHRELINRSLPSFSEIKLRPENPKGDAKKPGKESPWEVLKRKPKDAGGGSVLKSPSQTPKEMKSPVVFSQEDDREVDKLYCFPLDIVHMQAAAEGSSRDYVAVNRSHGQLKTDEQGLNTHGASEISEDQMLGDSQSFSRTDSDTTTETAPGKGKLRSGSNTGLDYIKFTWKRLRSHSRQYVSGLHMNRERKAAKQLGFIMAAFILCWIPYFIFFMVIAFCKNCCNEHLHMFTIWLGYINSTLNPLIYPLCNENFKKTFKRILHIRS
T6 sequence (Q01959 whole entry): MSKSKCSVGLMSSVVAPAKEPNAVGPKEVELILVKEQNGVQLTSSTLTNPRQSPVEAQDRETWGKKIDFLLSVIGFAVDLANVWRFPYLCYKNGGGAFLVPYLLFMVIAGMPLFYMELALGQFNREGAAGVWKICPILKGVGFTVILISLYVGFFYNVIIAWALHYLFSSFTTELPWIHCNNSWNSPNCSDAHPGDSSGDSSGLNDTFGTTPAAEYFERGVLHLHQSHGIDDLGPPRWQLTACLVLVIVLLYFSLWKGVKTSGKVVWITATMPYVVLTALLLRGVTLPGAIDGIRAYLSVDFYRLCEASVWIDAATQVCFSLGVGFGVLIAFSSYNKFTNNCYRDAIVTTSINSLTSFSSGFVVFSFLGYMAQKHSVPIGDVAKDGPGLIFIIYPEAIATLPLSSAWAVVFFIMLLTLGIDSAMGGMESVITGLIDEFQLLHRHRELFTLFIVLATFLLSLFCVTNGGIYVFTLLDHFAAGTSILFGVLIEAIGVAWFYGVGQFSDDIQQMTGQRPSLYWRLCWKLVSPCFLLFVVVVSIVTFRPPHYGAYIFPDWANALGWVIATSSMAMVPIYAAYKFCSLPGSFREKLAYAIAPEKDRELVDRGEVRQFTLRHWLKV
T1 sequence (P28223 whole entry): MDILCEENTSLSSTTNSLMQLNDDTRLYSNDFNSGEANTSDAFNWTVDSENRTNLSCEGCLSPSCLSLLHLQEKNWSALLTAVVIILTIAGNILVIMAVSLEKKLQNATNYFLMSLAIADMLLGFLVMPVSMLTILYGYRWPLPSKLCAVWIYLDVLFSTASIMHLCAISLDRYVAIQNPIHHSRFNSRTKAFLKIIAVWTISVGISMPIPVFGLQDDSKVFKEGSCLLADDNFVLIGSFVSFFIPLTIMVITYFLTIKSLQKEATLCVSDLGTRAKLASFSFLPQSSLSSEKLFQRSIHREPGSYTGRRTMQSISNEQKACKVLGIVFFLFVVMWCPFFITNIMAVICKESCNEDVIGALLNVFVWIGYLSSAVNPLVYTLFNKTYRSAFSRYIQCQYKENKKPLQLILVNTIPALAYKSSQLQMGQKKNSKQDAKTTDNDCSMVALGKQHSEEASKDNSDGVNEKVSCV

For orientation: IC50 means the point on the concentration scale where inhibition reaches its midpoint. As to `C[C@@H]1CN(C(=N)N)N=C1c1ccc(F)cc1O` [AM1476], the “binding to approximately 200 other targets” value in data set [1] is “no binding to the majority of targets”. Moreover, the IC50 is over 10 µM on human 5-HT2AR; 32.5 µM against Adrenergic β1 (hu); 3.78 µM in data set [2]; 3.1 µM at 5-HT2CR; 28 µM on Histamine H1 (hu); over 30 µM on Uptake, Dopamine (hu). Also, the IC50 was found to be 4.34 µM against Adrenergic α1A (hu) and 9.53 µM against Adrenergic α1B (hu). Besides, on Adrenergic β1 (hu) (at 300 µM), the “agonistic activity, Adrenergic β1” value is given as “No significant agonistic activity at 300 µM”. The “hydroxyproline content vs five-week-old Tsk-1 mice (pretreatment level)” value in the data set with Tsk-1 mice (10 mg/kg qd or 10 mg/kg bid) is given as “comparable”. Also, in the data set on Tsk-1 mice (10 mg/kg qd or 10 mg/kg bid), the “hypodermal thickness vs five-week-old Tsk-1 mice (pretreatment level)” value is recorded as “comparable”. The hydroxyproline content entry in the data set on Tsk-1 mice (setting [4]) is given as “reduced”. The hypodermal thickening result with Tsk-1 mice (setting [4]) is given as “reduced”. For the same compound, the myofibroblast counts result in the data set with Tsk-1 mice (setting [4]) is “reduced”. Moreover, in data set [3], the “level of systemic exposure (free plasma concentration) vs IC50 of mouse 5-HT2BR antagonistic activity” value was “exceeded the IC50”. At Histamine H1 (hu) (at 30 µM), the “agonistic activity, Histamine H1” value is “No significant agonistic activity at 30 µM”. Moreover, the “agonistic activity, Adrenergic α1A” value at Adrenergic α1A (hu) (at 300 µM) is recorded as “No significant agonistic activity at 300 µM”. Moreover, at Adrenergic α1B (hu) (at 30 µM), the “agonistic activity, Adrenergic α1B” value was “No significant agonistic activity at 30 µM”.

The record behind these values is article PMC12311259, “Antifibrotic effects of specific targeting of the 5‐hydroxytryptamine 2B receptor (5‐HT2BR) in murine models and ex vivo models of scleroderma skin” (Arthritis & Rheumatology (Hoboken, N.j.), 2025).
